The results in this text go back to patent US20100286145A1, “ISOPHTHALAMIDE DERIVATIVES INHIBITING BETA-SECRETASE ACTIVITY” (CoMentis, Inc., priority 2007, published 2010).

One series concerns the target memapsin 2 (Homo sapiens, UniProt P56817). As to the kind of experiment: Inhibition of memapsin 2 beta-secretase activity (fluorogenic substrate FS-2). The following applies: memapsin 2, pH 4, 37° C. It is filed as biochemical. Put shortly:
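Memapsin 2 pre-incubated 20 min with compound at pH 4, 37° C, then FS-2 substrate (MCA-SEVNLDAEFK-DNP, APP Swedish cleavage site) added. Rate of fluorescence increase compared with uninhibited controls, fitted to a tight-binding inhibition model.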

A further series addresses T1, memapsin 1 (Homo sapiens, UniProt Q9Y5Z0).
T1 sequence (Q9Y5Z0 63-518): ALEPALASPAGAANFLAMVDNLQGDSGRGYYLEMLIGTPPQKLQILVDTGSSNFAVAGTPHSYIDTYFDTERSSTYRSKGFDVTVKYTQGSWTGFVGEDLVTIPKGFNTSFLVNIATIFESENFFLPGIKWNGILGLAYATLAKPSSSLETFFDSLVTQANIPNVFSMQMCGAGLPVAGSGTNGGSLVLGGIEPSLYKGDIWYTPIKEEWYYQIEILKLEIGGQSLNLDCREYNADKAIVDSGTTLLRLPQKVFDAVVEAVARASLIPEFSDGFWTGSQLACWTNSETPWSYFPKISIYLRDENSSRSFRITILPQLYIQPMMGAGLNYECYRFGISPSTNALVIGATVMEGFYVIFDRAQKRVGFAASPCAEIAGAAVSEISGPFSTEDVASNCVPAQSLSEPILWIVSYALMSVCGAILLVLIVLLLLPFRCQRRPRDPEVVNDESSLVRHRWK
As to the kind of experiment: Inhibition of memapsin 1 beta-secretase activity (substrate peptide ELDLAVEFWHDR, MALDI-TOF). It is filed as biochemical.

The target of another series is cathepsin D (Homo sapiens, UniProt P07339). As to the kind of experiment: Inhibition of cathepsin D activity (substrate peptide ELDLAVEFWHDR, MALDI-TOF). It is filed as biochemical.
The subject of series [1] is Aβ production in Chinese hamster ovary cells that over-express human APP695 with the London and Swedish mutations. As to the kind of experiment: Cellular Aβ IC50 determination (Aβ40 sandwich ELISA). It is filed as cell-based. The following applies: Cricetulus griseus. Put shortly:
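CHO cells overexpressing human APP695 with London and Swedish mutations, seeded at 10% confluency, treated with compounds up to about 4 μM final (0.4% DMSO). Secreted Aβ40 measured by sandwich ELISA relative to control and fitted to a 4-parameter IC50 model.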

Series [2] can be described thus: Brain pharmacokinetic analysis / brain penetration in rats, i.v. bolus. It is filed as in vivo. The source says: (§1) Quantitative analysis was used to determine the concentration of a test inhibitor, N1-((2S,3R)-4-((5-(2-fluoropropan-2-yl)pyridin-3-yl)methylamino)-3-hydroxy-1-phenylbutan-2-yl)-N3-methyl-N3-((4-methylthiazol-2-yl)methyl)isophthalamide, in biological tissues. The test inhibitor was extracted from a variety of biological samples followed by its selective identification and quantification from a standard curve prepared in the same extracted biological matrix. Briefly, this extraction is accomplished through a simple protein precipitation technique performed on collected plasma. The resultant extractions are then quantified using the LC/MS protocol as detailed herein.
(§2) Quantitative analysis was performed through LC/MS analysis. The system was composed of an Eksigent Express LC 100 microflow HPLC system, coupled with an Eksigent CXP C-8AR 0.3*50 mm, or other suitable column, and a Thermo TSQuantum Classic triple quadrupole mass spectrometer running in positive ion, SRM mode. The HPLC buffers were 99.5% H2O, 0.5% formic acid (buffer A) and 99.5% acetonitrile, 0.5% formic acid (buffer B). Typically, a 10 μl aliquot was injected onto the column followed by a 1.5 minute chromatographic analysis. This analysis was conducted at a 20 μl/min flow rate, and composed of a gradient from 15% B to 90% B followed by a 98% B flush to facilitate compound separation and quantitation. Each sample was analyzed in duplicate, with QC, and system blank samples run after every sample set. The column effluent was analyzed in real time by MS/MS to allow the positive identification and quantification of the test inhibitor by compound fingerprint analysis. This was accomplished by allowing only species of 586.3 Da to pass through the first quadrupole, followed by collision induced decay in quadrupole two and scanning analysis of selected daughter ions specific to the test compound in quadrupole three. The collected data was analyzed using the LCQuan software package from Thermo Electron, to determine the levels of the test compound in the samples.
Male Sprague-Dawley Rats (200-400 g) were obtained from Taconic Farms (Hudson, N.Y.) with a pre-implanted jugular vein cannula (JVC) for blood sampling. A solution (5 mg/mL, free base equivalents) of the test inhibitor, N1-((2S,3R)-4-((5-(2-fluoropropan-2-yl)pyridin-3-yl)methylamino)-3-hydroxy-1-phenylbutan-2-yl)-N3-methyl-N3-((4-methylthiazol-2-yl)methyl)isophthalamide mono-citrate salt, was prepared freshly in 35% hydroxypropyl-β-cyclodextrin (HPBCD). Intravenous bolus injection was conducted using a 25 gauge needle via the tail vein. Animals were supplied with water and a commercial rodent diet ad libitum prior to and during the study.
Blood samples (˜100 μl at each time point) for plasma pharmacokinetic (PK) analysis were collected from the JVC cannula into lithium-heparin tubes at 2 min, 5 min, 15 min, 30 min, 45 min, 1 hr, 2 hr, 4 hr, 6 hr and 24 hr post-dose (Group A in Table 2). For compartmental PK analysis, blood and brain were collected from animals in Group B (Table 2) at 15 min, 1 hr, 2 hr, 4 hr, and 6 hr post-dose, with three rats assigned to each time point. Animals were deeply anesthetized with isoflurane and blood collected by cardiocentesis. Plasma separated by centrifugation at 6000 rpm×10 min. Brain hemispheres were subsequently harvested and snap frozen in liquid nitrogen. Plasma and brain samples were subsequently stored at −70° C.
Bioanalysis of the test inhibitor from plasma and brain extracts was performed according to standard procedures. Briefly, 20 μl of plasma was extracted with 100 μl of acetonitrile using a 96-well Solvinert filter plate (Millipore). Samples were subjected to LC/MS/MS analysis using an Eksigent Express LC 100 microflow HPLC system, coupled with an Eksigent CXP C-18AR 0.3*50 mm column, and a Thermo TSQuantum Classic triple quadrupole mass spectrometer running in positive ion, SRM mode. […]

Series [3] is described as follows: Plasma pharmacokinetic analysis in rats, i.v. bolus. It is filed as in vivo. The following applies: male, Sprague-Dawley, rat.
Text: as §1
Whole blood from animals dosed with the test inhibitor was collected in lithium heparin anti-coagulant tubes. These samples were centrifuged to allow the subsequent collection of plasma, with plasma aliquots immediately stored at −70° C. For quantitative analysis, the samples were then thawed on ice and a 20 μl aliquot was added to a well of a multi-screen Solvinert filter plate (Millipore). A five-fold volume of acetonitrile was added to each sample to facilitate protein precipitation, the samples were multiply aspirated or shaken to mix and then centrifuged at 4500 rpm for 15 minutes to filter the samples, with the supernatant being collected in an underlying 96 well receiving plate. The receptor plate was then dried via speed vacuum at 40° C. The sample was reconstituted by multiple aspirations with a reconstitution buffer composed of 10% acetonitrile, 10% DMSO, 80% H2O with an internal standard added at a concentration of 100 ng/ml. Standards of the test inhibitor were prepared in 100% DMSO for the generation of a standard curve for sample quantification. The samples range from 1 to 100000 ng/ml, as required for the analysis. A 1 μl aliquot of standard was added per 10 μl of blank plasma to construct a calibration curve, 0.1 ng/ml to 10000 ng/ml, prior to the protein precipitation step again as required for analysis. Quality control samples were prepared identically, from an alternate standard source and a single sample was prepared with an identical volume spike added post precipitation and collection to monitor the extraction efficiency. This method was applicable to plasma from all species currently being tested. Solvinert filter wells were pre-washed with 100 μl of 10% MeOH/90% ACN followed by centrifugation at 4500 RPM for 10 min prior to use.
as §2
Male Sprague-Dawley Rats (200-400 g) were obtained from Taconic Farms (Hudson, N.Y.) with a pre-implanted jugular vein cannula (JVC) for blood sampling. […]

Setting [4] is: male, Sprague-Dawley, rat, in vivo, iv, 10 mg/kg.

pIC50, pKi: −log10 of the molar value. Like-named read-outs stand apart in the source and are kept apart here. Bounds are passed on as bounds.

cathepsin D, sequence (P07339 65-412, species assumed): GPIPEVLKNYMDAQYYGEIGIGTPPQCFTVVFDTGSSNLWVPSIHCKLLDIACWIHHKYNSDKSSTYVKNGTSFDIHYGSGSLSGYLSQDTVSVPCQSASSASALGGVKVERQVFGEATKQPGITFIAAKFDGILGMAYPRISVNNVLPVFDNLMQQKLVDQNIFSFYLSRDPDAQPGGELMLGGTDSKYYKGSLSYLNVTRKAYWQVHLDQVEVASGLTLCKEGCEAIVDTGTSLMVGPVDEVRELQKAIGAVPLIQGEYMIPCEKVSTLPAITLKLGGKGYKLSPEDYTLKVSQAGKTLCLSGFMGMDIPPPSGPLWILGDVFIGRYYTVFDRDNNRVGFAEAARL
memapsin 2, sequence (P56817 46-501): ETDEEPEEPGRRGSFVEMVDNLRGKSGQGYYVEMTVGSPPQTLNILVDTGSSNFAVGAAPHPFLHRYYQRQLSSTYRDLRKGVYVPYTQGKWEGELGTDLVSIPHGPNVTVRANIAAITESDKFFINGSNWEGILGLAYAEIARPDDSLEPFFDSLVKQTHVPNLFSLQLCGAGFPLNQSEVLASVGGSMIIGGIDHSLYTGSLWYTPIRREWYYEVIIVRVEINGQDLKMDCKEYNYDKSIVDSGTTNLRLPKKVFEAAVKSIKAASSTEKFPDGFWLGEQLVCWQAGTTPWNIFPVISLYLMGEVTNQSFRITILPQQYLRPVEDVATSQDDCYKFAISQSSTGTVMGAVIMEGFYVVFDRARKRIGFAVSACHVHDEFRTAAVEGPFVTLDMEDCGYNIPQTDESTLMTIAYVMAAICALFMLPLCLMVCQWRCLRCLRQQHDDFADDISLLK

In the case of `Cc1csc(CN(C)C(=O)c2cccc(C(=O)N[C@@H](Cc3ccccc3)[C@H](O)CNCc3cc(C(C)C)cc(N(C)C)c3)c2)n1` [Compound 90, N1-((2S,3R)-4-(3-(dimethylamino)-5-isopropylbenzylamino)-3-hydroxy-1-phenylbutan-2-yl)-N3-methyl-N3-((4-methylthiazol-2-yl)methyl)isophthalamide], the pKi on memapsin 2 (20 minutes pre-incubation, read-out: M2Ki) was above 6.52; on memapsin 1 (read-out: M1Ki) it was below 6.30; at cathepsin D (read-out: CDKi), above 6.52. Further, in series [1] (cellular Aβ production, read-out: IC50), the negative-log IC50 (pIC50) is above 6.00.

With `Cc1cc(C(=O)N[C@@H](Cc2ccccc2)[C@H](O)CNCc2cncc(C(C)C)c2)cc(C(=O)N(C)Cc2nc(C)cs2)c1` [N1-((2S,3R)-3-hydroxy-4-((5-isopropylpyridin-3-yl)methylamino)-1-phenylbutan-2-yl)-N3,5-dimethyl-N3-((4-methylthiazol-2-yl)methyl)isophthalamide], the results for the pKi on memapsin 2 (read-out: M2 Ki), at memapsin 1 (read-out: M1 Ki) and on cathepsin D (read-out: CathD Ki) were 7.77, 6.58 and 7.49, respectively. Moreover, the negative-log IC50 (pIC50) in series [1] (CHO cells, 24 h incubation, Aβ40, read-out: IC50 (cellular Aβ production)) is 8.22.

In the case of `Cc1csc(CN(C)C(=O)c2cccc(C(=O)N[C@@H](Cc3ccccc3)[C@H](O)CNCc3cncc(C(C)(C)F)c3)c2)n1` [N1-((2S,3R)-4-((5-(2-fluoropropan-2-yl)pyridin-3-yl)methylam] [N1-((2S,3R)-4-((5-(2-fluoropropan-2-yl)pyridin-3-yl)methylamino)-3-hydroxy-1-phenylbutan-2-yl)-N3-methyl-N3-((4-methylthiazol-2-yl)methyl)isophthalamide], in series [2] (setting [4]), the “Penetration (%), brain relative to plasma AUC24 hr” value turned out to be 47%.

For the molecule `Cc1csc(CN(C)C(=O)c2cccc(C(=O)N[C@@H](Cc3ccccc3)[C@H](O)CNCc3cncc(C(C)(C)F)c3)c2)n1` [N1-((2S,3R)-4-((5-(2-fluoropropan-2-yl)pyridin-3-yl)methylamino)-3-hydroxy-1-phenylbutan-2-yl)-N3-methyl-N3-((4-methylthiazol-2-yl)methyl)isophthalamide], in series [3] (plasma, rats, single 10 mg/kg intravenous dose, read-out: 24 hr plasma AUC), the AUC worked out at 2580 ng·h/mL. The same molecule showed a Kp in series [2] (male, Sprague-Dawley, rat, in vivo, iv, 10 mg/kg, Penetration (%), brain relative to plasma AUC24 hr) of 0.468.

In series [3] (in vivo, iv, 10 mg/kg), `Cc1csc(CN(C)C(=O)c2cccc(C(=O)N[C@@H](Cc3ccccc3)[C@H](O)CNCc3cncc(C(C)(C)F)c3)c2)n1` [test inhibitor, N1-((2S,3R)-4-((5-(2-fluoropropan-2-yl)pyridin-3-yl)methylamino)-3-hydroxy-1-phenylbutan-2-yl)-N3-methyl-N3-((4-methylthiazol-2-yl)methyl)isophthalamide] showed a concentration at 0.25 h of 2500 ng/mL, a concentration at 1 h of 548 ng/mL, a concentration at 2 h of 130 ng/mL and a concentration at 4 h of 31.1 ng/mL. In series [3] (in vivo, iv, 10 mg/kg), this molecule came in with a concentration at 6 h of 5.7 ng/mL and a concentration at 24 h of 2.2 ng/mL. In addition, in series [3] (plasma, iv, 10 mg/kg, rats, i.v. bolus 10 mg/kg, read-out: Plasma Terminal phase t1/2 (converted)), the half-life is 13.1 h. Besides, the half-life in series [3] (plasma, iv, 10 mg/kg, rats, single 10 mg/kg intravenous dose, read-out: half-life in plasma) lay within 6 to 13 h. For the same molecule, in series [3] (plasma, iv, rats, single dose i.v. 10 mg/kg, read-out: AUC24 hr, Plasma), the AUC(0-t) worked out at 2580 ng·h/mL. Also, in series [2] (setting [4]), the “Brain Terminal phase t1/2” value came out at 34.3 h; the mean residence time (MRT last) is 12 h; the “Penetration (%), brain relative to plasma AUC24 hr” value was found to be 46.8%; the concentration at 0.25 h stood at 160 ng/mL. In series [2] (setting [4]), this molecule showed a concentration at 1 h of 71.1 ng/mL, a concentration at 2 h of 72.4 ng/mL, a concentration at 4 h of 28 ng/mL and a concentration at 6 h of 42.7 ng/mL. Also, the concentration at 24 h in series [2] (setting [4]) amounted to 52.5 ng/mL. For the same molecule, the half-life in series [2] (male, Sprague-Dawley, rat, in vivo, iv, 10 mg/kg, Brain Terminal phase t1/2) was 34 h. The AUC(0-t) in series [2] (male, Sprague-Dawley, rat, in vivo, iv, rats, single dose i.v. 10 mg/kg, read-out: AUC24 hr, Brain) came out at 1210 ng·h/mL. Besides, in series [2] (rats, i.v. bolus 10 mg/kg), the “Brain AUC24 hr” value turned out to be 1206.2 ng·h/mL.
